We go through eleven compounds from patent US20220204479A1, “PYRIMIDINE COMPOUND AND PREPARATION METHOD THEREFOR” (Wuhan Humanwell Innovative Drug Research And Development …, priority 2019, published 2022).

Series [1] is described as follows: Thermodynamic solubility test. In kind it is physicochemical. The settings on record: thermodynamic from solid. Here is the method:
The compound was accurately weighed, and the prepared phosphate buffer (pH 7.4), FeSSIF solution (pH 5.8) and FaSSGF solution (pH 1.6) were added to prepare a solution with a concentration of 4 mg/mL, which was shaken at 1,000 rpm for 1 hour, and then incubated overnight at room temperature. After the incubation, the solution was centrifuged at 12,000 rpm for 10 min to remove undissolved particles, and the supernatant was transferred to a new centrifuge tube. The supernatant was diluted appropriately, then added with an acetonitrile solution containing the internal standard, and quantified using a standard curve prepared with the same matrix.

In a further series the target is T1, ATX enzyme in rat plasma (Rattus norvegicus, UniProt Q64610).
T1 construct: Whole blood was collected from rats and anticoagulated with heparin; from tissue; host or cells: rat plasma (heparin)
Description: Inhibition of activity of ATX enzyme in rat plasma (LPA18:2 formation, LC-MSMS). In kind it is biochemical. The settings on record: for inhibitory activity on ATX enzyme in rat plasma compared with control compounds 1 and 2: comparison in words. Here is the method:
Whole blood was collected from rats and anticoagulated with heparin. The blood collection tubes were centrifuged at 3,000 rpm for 15 min, and the plasma was placed on ice for use.
The compound was serially diluted with DMSO: 30% ACN=1:19 according to the conventional concentration requirements, and then placed on ice. 147 μL of plasma, which was placed on ice, was added to a 96-well plate, and then 3 μL of each of the gradient solutions of the compound (finally 1[…] DMSO) was added. A group containing none of the compounds was set as the positive group. The 96-well plate was mixed uniformly, and incubated at 37° C. for 3 h. In addition, a blank group was also provided. At the beginning of the incubation, the plasma of blank group was added to with excessive acetonitrile containing the internal standard LPA17: 0 to precipitate the plasma protein, vortexed to mix, and stored at 4° C. The blank group was provided to determine the baseline concentration of endogenous LPA.
A peak area of LPA18: 2 and a peak area of internal standard LPA17: 0 were detected using LC-MSMS mass spectrometry.
(§1) A ratio of the peak area of LPA18: 2 to the peak area of internal standard LPA17: 0 was calculated, and a formation inhibition rate of LPA18: 2 was calculated according to the following formula:
(§2) Inhibition rate (%)=100−(compound group with different concentrations−blank group)/(positive group−blank group)*100
According to the inhibition rates of different concentrations of the compound, the IC50 value of the compound for inhibiting activity of ATX enzyme in rat plasma, was calculated.

The conditions of series [2]: cited from earlier work; for probability of discontinuation due to serious adverse events: patients taking the drug.
Series [3] in a line: Pharmacokinetic test in canines. Type of series: in vivo. The settings on record: dog, plasma; male beagle dogs, oral gavage 5 mg/kg. The procedure:
(§3) For the pharmacokinetic test of rats, 3 male SD rats (180-240 g) were used, and fasted overnight. The rats were orally administered by gavage (10 mg/kg). […] The blood samples were centrifuged at 8,000 rpm at 4° C. for 6 min, and plasma was collected and stored at −20° C. The plasma at each time point was taken and added with an acetonitrile solution containing internal standard in 3 to 5 times the amount, vortexed and mixed for 1 min, and centrifuged at 13,000 rpm at 4° C. for 10 min. The supernatant was collected, added with water in 3 times the amount, and mixed. An appropriate amount of the mixture was taken for LC-MS/MS analysis. The main pharmacokinetic parameters were analyzed using WinNonlin 7.0 software with non-compartmental model.
For the pharmacokinetics test of canines, 3 male beagle dogs (8 to 10 kg) were used, and fasted overnight. The dogs were orally administered by gavage (5 mg/kg). The rest of the operation is the same as the pharmacokinetic test in rats.

Series [4] can be described thus: Human liver microsome stability test. The following applies: human liver microsomes; for Remaining percentage (%) of compound after incubation for 30 min: NADPH, 37° C.; for half-life at 1 µM: human.
Description: The human liver microsome stability test was performed by incubating the compound and human liver microsomes in vitro for detection. First, the test compound was prepared into a 10 mM stock solution in DMSO solvent, and then the compound was diluted to 0.5 mM with acetonitrile. Human liver microsomes (Corning) were diluted with PBS and prepared as a microsome/buffer solution, which was used to dilute the 0.5 mM compound solution into a working solution. […] A deep-well multi-well plate was taken, 30 μL of the working solution and 15 μL of pre-warmed NADPH solution (6 mM) were sequentially added to each well to initiate a reaction, and the reaction was incubated at 37° C. […] After centrifugation, the supernatant was collected, and added with purified water in a ratio of 1:1 to perform LC-MS/MS detection. […] T1/2 was calculated by using Excel.
A short description of series [5]: Pharmacokinetic test in rats. The settings on record: Sprague-Dawley, rat, plasma, male SD rats, oral gavage 10 mg/kg. In kind it is in vivo. Here is the method: as §3
A further series has as its target T2, autotaxin (ATX) enzyme (Homo sapiens, UniProt Q13822).
T2 construct: purchased Cayman 700580
Description: Autotaxin (ATX) enzyme activity inhibition test (Cayman Autotaxin Inhibitor Screening Assay Kit). In kind it is biochemical. The settings on record: 37° C., 30 min, OD405, read-out: IC50, inhibitory effect on ATX enzyme activity. Here is the method:
The inhibitory effects of the compounds on the autotaxin enzyme were detected using the Autotaxin Inhibitor Screening Assay Kit (Cayman, 700580). […] Subsequently, the 8 concentrations were diluted with Autotaxin Assay buffer (1×) provided in the kit into 19× compound working solutions (DMSO content was 1.9%). The Autotaxin Assay Reagent (10×) was taken out and diluted by 10 times with Autotaxin Assay Buffer (1×). The Autotaxin Substrate was taken out, dissolved by adding 1.2 mL of Autotaxin Assay Buffer (1×), mixed evenly and let stand by at room temperature. In a 96-well plate, 150 μL of Autotaxin Assay Buffer (1×), 10 μL of the prepared and diluted 19× compound working solution, 10 μL of Autotaxin Assay Reagent (1×), and 20 μL of the dissolved Autotaxin Substrate were added to each of the wells for each concentration, and homogenously mixed. The 96-well plate was shaken in a constant temperature shaker at 37° C. and incubated in the dark for 30 min, and then the plate was taken out and placed on a microplate reader to read OD405.

For series [6], the target named is T3, ATX enzyme in human plasma (Homo sapiens, UniProt Q13822).
T3 construct: Whole blood was collected from healthy volunteers and anticoagulated with heparin; from tissue; host or cells: human plasma (heparin) from healthy volunteers
Description: Inhibition of activity of ATX enzyme in human plasma (LPA18:2 formation, LC-MSMS). The following applies: for IC50: human plasma, 37° C., 3 h, LPA18:2 formation, read-out: IC50, inhibitory effect on activity of ATX enzyme in human plasma. In kind it is biochemical. The procedure: Whole blood was collected from healthy volunteers and anticoagulated with heparin. The blood collection tubes were centrifuged at 3,000 rpm for 10 min, and the plasma was taken and stored at −80° C. for use.
The compound was serially diluted with DMSO according to the conventional concentration requirements, then 3 μL of each of the diluted compound solutions was added to a 96-well plate, and 147 μL of PBS was added to each well containing 3 μL of the compound solution. After mixing homogenously, 50 μL of the mixture was taken out and added to a new 96-well plate. The human plasma was taken out from the −80° C. refrigerator and thawed through rapid shaking in a 37° C. water bath. 50 μL of the human plasma was taken and added to the 96-well plate containing 50 μL of the diluted compound (the final system contained 1% DMSO). The group without the compound was set as the positive group. The 96-well plate was shaken and mixed uniformly, and incubated at 37° C. for 3 h. A blank group was also provided, and the plasma of the blank group was stored at −80° C. The blank group is provided to determine the baseline concentration of endogenous LPA.
After the incubation was finished, the blank group was thawed on ice and transferred to an incubation plate. Excess acetonitrile containing the internal standard LPA17: 0 was added to the incubation plate to precipitate the plasma protein. After vortex centrifugation, the supernatant was taken and diluted, and a peak area of LPA18: 2 and a peak area of internal standard LPA17: 0 were detected using LC-MSMS mass spectrometry.
as §1, §2
According to the inhibition rates of different concentrations of the compound, the IC50 value of the compound for inhibiting activity of ATX enzyme in human plasma was calculated.

Setting [7] is: FaSSGF solution, fassgf or other biorelevant, FaSSGF pH 1.6, overnight at room temperature, read-out: Solubility, FaSSGF (pH 1.6).
[8] abbreviates: phosphate buffer (PBS), aqueous buffer, PBS pH 7.4, overnight at room temperature, read-out: Solubility, PBS (pH 7.4).
[9] abbreviates: rat plasma, 37° C., 3 h, LPA18:2 formation, read-out: IC50, inhibitory effect on activity of ATX enzyme in rat plasma.
[10] abbreviates: FeSSIF solution, FeSSIF pH 5.8, overnight at room temperature, read-out: Solubility, FeSSIF (pH 5.8).

Converted amounts (≈) assume the structure as drawn. Read-outs that look alike come from different tables or passages of the source.

The solubility is the concentration that dissolves in the medium under given conditions. For orientation: IC50 means the concentration that inhibits the measured activity by half. For `CC1CN(C(=O)c2cnc(NC3Cc4ccccc4C3)nc2)CCC1COCc1c[nH]nn1` (centres unmarked) [Compound I-4, (4-(((1H-1,2,3-triazol-4-yl)methoxy)methyl)-3-methylpiperidin-1-yl)(2-((2,3-dihydro-1H-inden-2-yl)amino)pyrimidin-5-yl)methanone], the solubility in series [1] (setting [7]) turned out to be 0.332 mg/mL (≈ 741 µM); in series [1] (setting [8]), 0.147 mg/mL (≈ 329 µM). Further, on ATX enzyme in rat plasma (setting [9]), the IC50 stood at 0.0323 µM.

As for `COC(=O)c1ccc2c(c1)NC(=O)/C2=C(\Nc1ccc(N(C)C(=O)CN2CCN(C)CC2)cc1)c1ccccc1` [Nintedanib], the “probability of discontinuation due to serious adverse events” value in series [2] is listed as 26.3%. The “incidence of gastrointestinal reactions” value in series [2] (patients) is on record as ≤ 50%.

One may read the Cmax as the highest concentration seen after dosing. In general, Tmax refers to the time at which the peak concentration occurs. A word on the half-life: it is the time in which the quantity being followed falls by half. A higher half-life goes with slow decline. Regarding `CCc1nc2c(C)cc(N3CCN(CC(=O)N4CC(O)C4)CC3)cn2c1N(C)c1nc(-c2ccc(F)cc2)c(C#N)s1` [Control compound 2, reference compound], in series [3], the AUC(0-t) amounted to 14.2 µg·h/mL, the Cmax is 2.1 µg/mL and the Tmax was found to be 120 min. In series [4], the “Remaining percentage (%) of compound after incubation for 30 min” value is recorded as 24.8% and the half-life at 1 µM is 16 min. The compound further had an IC50 on ATX enzyme in rat plasma of 0.413 µM. Besides, in series [5], the Tmax worked out at 30 min. Also, in series [5] (read-out: AUC0-t), the AUC(0-t) came to 2.57 µg·h/mL. In addition, the peak concentration (Cmax) in series [5] (read-out: Cmax) turned out to be 0.582 µg/mL.

For the compound `O=C(c1cnc(NC2Cc3ccc(F)cc3C2)nc1)N1CCC(COCc2c[nH]nn2)CC1` (centres unmarked) [Compound I-7, (4-(((1H-1,2,3-triazol-4-yl)methoxy)methyl)piperidin-1-yl)(2-((5-fluoro-2,3-dihydro-1H-inden-2-yl)amino)pyrimidin-5-yl)methanone], the IC50 was 0.0147 µM at ATX enzyme in rat plasma (setting [9]), 0.00116 µM at autotaxin (ATX) enzyme and 0.0146 µM in series [6].

As to `CC1CC(COCc2c[nH]nn2)CCN1C(=O)c1cnc(NC2Cc3ccccc3C2)nc1` (centres unmarked) [Compound I-5, (4-(((1H-1,2,3-triazol-4-yl)methoxy)methyl)-2-methylpiperidin-1-yl)(2-((2,3-dihydro-1H-inden-2-yl)amino)pyrimidin-5-yl)methanone], the solubility in series [1] (setting [7]) was 0.448 mg/mL (≈ 1000 µM); in series [1] (setting [10]), 0.317 mg/mL (≈ 708 µM); in series [1] (setting [8]) it was 0.129 mg/mL (≈ 288 µM). Further, on ATX enzyme in rat plasma, the “inhibitory activity on ATX enzyme in rat plasma compared with control compounds 1 and 2” value is “higher inhibitory activity on ATX enzyme in rat plasma than the control compounds 1 and 2”. Moreover, the IC50 on ATX enzyme in rat plasma (setting [9]) is 0.0107 µM; at autotaxin (ATX) enzyme, 0.00129 µM; in series [6], 0.0309 µM.

On to `O=C(c1cnc(NC2Cc3ccc(F)cc3C2)nc1)N1CC2(CC(OCc3c[nH]nn3)C2)C1` (centres unmarked) [Compound I-10, (6-((1H-1,2,3-triazol-4-yl)methoxy)-2-azaspiro[3.3]heptan-2-yl)(2-((5-fluoro-2,3-dihydro-1H-inden-2-yl)amino)pyrimidin-5-yl)methanone], for which the “inhibitory activity on ATX enzyme in rat plasma compared with control compounds 1 and 2” value at ATX enzyme in rat plasma is “higher inhibitory activity on ATX enzyme in rat plasma than the control compounds 1 and 2”. The IC50 on ATX enzyme in rat plasma (setting [9]) amounted to 0.0048 µM; at autotaxin (ATX) enzyme, 0.00108 µM; in series [6], 0.0118 µM. Further, the “inhibitory effect on ATX enzyme in human plasma compared with control compounds 1 and 2” value in series [6] (comparison in words) was “higher inhibitory effect on ATX enzyme in human plasma than the control compounds 1 and 2”.

Regarding `Cc1ccc(=O)n(-c2ccccc2)c1` [Pirfenidone], in series [2], the “probability of discontinuation due to serious adverse events” value was 20.9%.

Consider `CC(OCc1c[nH]nn1)C1CCN(C(=O)c2cnc(NC3Cc4ccccc4C3)nc2)CC1` (centres unmarked) [Compound I-3, (4-(1-((1H-1,2,3-triazol-4-yl)methoxy)ethyl)piperidin-1-yl)(2-((2,3-dihydro-TH-inden-2-yl)amino)pyrimidin-5-yl)methanone], for which the IC50 was 0.00671 µM at autotaxin (ATX) enzyme and 0.0421 µM in series [6].

Take `CC(OCC1CCN(C(=O)c2cnc(NC3Cc4ccccc4C3)nc2)CC1)c1cn[nH]n1` (centres unmarked) [Compound I-2, (4-((1-(2H-1,2,3-triazol-4-yl)ethoxy)methyl)piperidin-1-yl)(2-((2,3-dihydro-1H-inden-2-yl)amino)pyrimidin-5-yl)methanone]: in series [4], the “Remaining percentage (%) of compound after incubation for 30 min” value stood at 39.65% and the half-life at 1 µM came out at 24 min. Moreover, on autotaxin (ATX) enzyme, the IC50 is 0.00339 µM. In series [6], the IC50 was 0.0247 µM.

For `O=C(c1cnc(NC2Cc3cc(F)c(F)cc3C2)nc1)N1CCC(COCc2c[nH]nn2)CC1` [Compound I-8, (4-(((1H-1,2,3-triazol-4-yl)methoxy)methyl)piperidin-1-yl)(2-((5,6-difluoro-2,3-dihydro-1H-inden-2-yl)amino)pyrimidin-5-yl)methanone], the values for the IC50 on ATX enzyme in rat plasma (setting [9]) and on autotaxin (ATX) enzyme were 0.136 µM and 0.00204 µM, respectively.

As to `O=C(c1cnc(NC2Cc3ccccc3C2)nc1)N1CCC(COCc2c[nH]nn2)C(F)C1` (centres unmarked) [Compound I-6, (4-(((1H-1,2,3-triazol-4-yl)methoxy)methyl)-3-fluoropiperidin-1-yl)(2-((2,3-dihydro-1H-inden-2-yl)amino)pyrimidin-5-yl)methanone], the values for the solubility in series [1] (setting [7]), in series [1] (setting [10]) and in series [1] (setting [8]) were 0.165 mg/mL (≈ 366 µM), 0.049 mg/mL (≈ 109 µM) and 0.0186 mg/mL (≈ 41.2 µM), respectively. Further, the IC50 at ATX enzyme in rat plasma (setting [9]) was found to be 0.0229 µM; on autotaxin (ATX) enzyme it was 0.00143 µM; in series [6] it was 0.0412 µM.
